For assay [1], the target named is T1, Quinolone resistance protein NorA (Staphylococcus aureus) (UniProt P0A0J7).
T1 sequence (whole entry): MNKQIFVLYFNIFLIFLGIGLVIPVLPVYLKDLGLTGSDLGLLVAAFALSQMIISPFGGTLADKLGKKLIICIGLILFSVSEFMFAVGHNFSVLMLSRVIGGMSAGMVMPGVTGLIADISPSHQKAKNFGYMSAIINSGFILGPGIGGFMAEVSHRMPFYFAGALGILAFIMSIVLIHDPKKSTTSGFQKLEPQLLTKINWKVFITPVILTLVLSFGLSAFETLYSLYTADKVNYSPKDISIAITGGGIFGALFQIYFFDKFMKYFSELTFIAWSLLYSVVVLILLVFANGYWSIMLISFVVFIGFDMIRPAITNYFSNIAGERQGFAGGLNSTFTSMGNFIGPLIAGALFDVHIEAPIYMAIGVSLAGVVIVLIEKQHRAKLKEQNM
The experiment in a line: Inhibition of NorA in Staphylococcus aureus SA-1199B assessed as potentiation of norfloxacin-mediated antibacterial activity by measuring norfloxacin MIC incubated for 24 hrs by resazurin assay. (In general: Alamar Blue is a resazurin reagent that responds to reducing activity.)

Assay [2] concerns the target T1, Quinolone resistance protein NorA (Staphylococcus aureus). The assay is described as follows: Inhibition of NorA in Staphylococcus aureus SA-1199B assessed as potentiation of ethidium bromide-mediated antibacterial activity by measuring ethidium bromide MIC incubated for 24 hrs by resazurin assay.
The subject of assay [3] is Staphylococcus aureus. The experiment in a line: Antibacterial activity against wild-type Staphylococcus aureus SA-1199 incubated for 24 hrs by broth microdilution method. Format: functional. (In broth dilution the organism is exposed to a series of concentrations in liquid medium.)
Assay [4] concerns Staphylococcus aureus. The assay is described as follows: Decrease in NorA gene expression in Staphylococcus aureus SA-1199B in combination with norfloxacin by RT-qPCR. Format: functional. Background: In qPCR the cycle at which signal appears reflects the starting amount.
Assay [5] concerns the target T1, Quinolone resistance protein NorA (Staphylococcus aureus). The assay is described as follows: Inhibition of NorA in Staphylococcus aureus SA-1199 assessed as potentiation of ethidium bromide-mediated antibacterial activity by measuring ethidium bromide MIC incubated for 24 hrs by resazurin assay.
For assay [6] the target is unchanged. The assay is described as follows: Inhibition of NorA in Staphylococcus aureus SA-1199 assessed as potentiation of norfloxacin-mediated antibacterial activity by measuring norfloxacin MIC incubated for 24 hrs by resazurin assay.
For assay [7], the system named is Staphylococcus aureus. The experiment in a line: Antibacterial activity against Staphylococcus aureus SA-1199B overexpressing NorA incubated for 24 hrs by broth microdilution method. Format: functional.
The subject of assay [8] is Staphylococcus aureus. The experiment in a line: Decrease in NorA gene expression in Staphylococcus aureus SA-1199B by RT-qPCR. Format: functional.

This is an account of results in ChEMBL document CHEMBL4825750, “Evaluation of Elaiophylin extracted from Streptomyces hygroscopicus as a potential inhibitor of the NorA efflux protein in Staphylococcus aureus: An in vitro and in silico approach” (2021).

≈ marks a conversion by molar mass, not a printed value. Calls of active or inactive are those of the source. No cut-off for these calls is given here.

On to `CC[C@@H]1[C@@H](C)O[C@@](O)([C@@H](C)[C@H](O)[C@H](C)[C@H]2OC(=O)/C=C/C=C/[C@H](C)[C@@H]([C@@H](C)[C@@H](O)[C@H](C)[C@@]3(O)C[C@@H](O[C@H]4C[C@H](O)[C@H](O)[C@H](C)O4)[C@H](CC)[C@@H](C)O3)OC(=O)/C=C/C=C/[C@@H]2C)C[C@H]1O[C@H]1C[C@H](O)[C@H](O)[C@H](C)O1`, for which the MIC in assay [1] was 1 µg/mL; in assay [2] it was 1 µg/mL; in assay [3], 0.5 µg/mL (≈ 0.488 µM); in assay [5], 1 µg/mL; in assay [6], 1 µg/mL; in assay [7], 0.5 µg/mL (≈ 0.488 µM). In addition, the outcome in assay [4] and in assay [8] was Active.
For the compound `CCn1cc(C(=O)O)c(=O)c2cc(F)c(N3CCNCC3)cc21` [NORFLOXACIN], the MIC was determined as 64 µg/mL (≈ 200 µM) in assay [3] and 256 µg/mL (≈ 802 µM) in assay [7].
For the compound `N#CC(C#N)=NNc1cccc(Cl)c1`, the MIC in assay [1] came to 8 µg/mL; in assay [2] it was 8 µg/mL; in assay [5], 4 µg/mL; in assay [6] it was 8 µg/mL.
